The target of data set [1] is T1, human 5-HT7b receptors (Homo sapiens, UniProt P34969).
T1 construct: expressed in transfected cells; host or cells: HEK293
Put plainly: 5-HT7 competition radioligand binding assay ([3H]5-CT). The conditions noted are these: HEK293 cells overexpressing human 5-HT7b receptors, at least two independent experiments in triplicate; for Ki: read-out: Ki ± S.D. 5-HT7 binding affinity. How it is done: Novel scaffold endowed with 5-HT7R activity was identified by screening of the in-house compound library in a single compound concentration of 1 µM in a competition radioligand binding assay using [^3H]5-CT and HEK293 cells overexpressing the human 5-HT7b receptors.

Data set [2] deals with T2, 5-HT7R (Homo sapiens, UniProt P34969).
T2 construct: expressed in transfected cells; host or cells: HEK293
Put plainly: cAMP functional test: inhibition of cAMP production induced by 5-CT (10 nM). It is filed as cell-based. The settings on record: for Kb: cAMP production induced by 5-CT (10 nM), HEK-293 cells expressing 5-HT7R, read-out: KB (5-HT7R antagonistic properties); for effect on 5-CT-induced cAMP accumulation: transfected HEK cells expressing 5-HT7R, 5-CT (10 nM).

Data set [3] has as its target T3, dopaminergic D2 (Homo sapiens, UniProt P14416).
T3 construct: expressed in transfected cells; host or cells: HEK293
Put plainly: D2 competition binding assay ([3H]-Raclopride). The settings on record: for Ki: [3H]-Raclopride, HEK293 cells with overexpressed receptor, read-out: Ki ± S.D. D2.

The target in data set [4] is T4, 5-HT1A (Homo sapiens, UniProt P08908).
T4 construct: expressed in transfected cells; host or cells: HEK293
T4 sequence (P08908 1-422): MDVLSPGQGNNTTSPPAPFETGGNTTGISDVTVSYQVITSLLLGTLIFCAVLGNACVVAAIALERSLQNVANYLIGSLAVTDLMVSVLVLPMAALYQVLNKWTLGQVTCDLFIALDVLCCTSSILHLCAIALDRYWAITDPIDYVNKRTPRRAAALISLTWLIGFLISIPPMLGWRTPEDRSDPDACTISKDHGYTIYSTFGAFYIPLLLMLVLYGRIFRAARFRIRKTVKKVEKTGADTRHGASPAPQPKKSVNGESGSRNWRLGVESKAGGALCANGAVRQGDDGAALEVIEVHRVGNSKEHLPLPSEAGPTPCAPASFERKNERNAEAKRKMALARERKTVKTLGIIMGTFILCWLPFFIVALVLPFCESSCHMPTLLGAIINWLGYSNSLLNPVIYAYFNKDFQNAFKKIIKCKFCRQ
Put plainly: 5-HT1A competition binding assay ([3H]-8-OH-DPAT). The conditions noted are these: HEK293 cells with overexpressed receptor, read-out: Ki ± S.D. 5-HT1A.

The target in data set [5] is T5, 5-HT2A (Homo sapiens, UniProt P28223).
T5 construct: expressed in transfected cells; host or cells: CHO
Nature of the data set: 5-HT2A competition binding assay ([3H]-Ketanserin). The conditions noted are these: CHO cells with overexpressed receptor, read-out: Ki ± S.D. 5-HT2A.

In data set [6] the target is T6, 5-HT6 (Homo sapiens, UniProt P50406).
T6 construct: expressed in transfected cells; host or cells: HEK293
Nature of the data set: 5-HT6 competition binding assay ([3H]-LSD). The conditions noted are these: for Ki: [3H]-LSD, HEK293 cells with overexpressed receptor, read-out: Ki ± S.D. 5-HT6.

“And” between values parts separate entries of the source, which are not always exact repeats. Equal values may be shown once. Where a name gives a salt, the structure may show the parent alone. Where only a bound is given, the exact number is not on record here.

T3 sequence (P14416 whole entry): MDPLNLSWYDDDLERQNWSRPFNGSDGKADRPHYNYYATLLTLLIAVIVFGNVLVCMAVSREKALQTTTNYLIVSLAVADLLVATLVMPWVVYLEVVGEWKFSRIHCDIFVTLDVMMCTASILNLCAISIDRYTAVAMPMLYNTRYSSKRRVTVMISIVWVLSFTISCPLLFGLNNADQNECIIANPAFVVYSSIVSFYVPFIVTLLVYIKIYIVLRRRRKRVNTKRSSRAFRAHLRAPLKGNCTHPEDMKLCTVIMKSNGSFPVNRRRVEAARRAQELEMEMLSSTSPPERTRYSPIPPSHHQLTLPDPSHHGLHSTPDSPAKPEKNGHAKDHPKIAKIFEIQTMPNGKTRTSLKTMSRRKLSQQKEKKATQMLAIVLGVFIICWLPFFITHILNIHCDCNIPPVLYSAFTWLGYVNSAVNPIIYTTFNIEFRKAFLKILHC
T5 sequence (P28223 whole entry, species assumed): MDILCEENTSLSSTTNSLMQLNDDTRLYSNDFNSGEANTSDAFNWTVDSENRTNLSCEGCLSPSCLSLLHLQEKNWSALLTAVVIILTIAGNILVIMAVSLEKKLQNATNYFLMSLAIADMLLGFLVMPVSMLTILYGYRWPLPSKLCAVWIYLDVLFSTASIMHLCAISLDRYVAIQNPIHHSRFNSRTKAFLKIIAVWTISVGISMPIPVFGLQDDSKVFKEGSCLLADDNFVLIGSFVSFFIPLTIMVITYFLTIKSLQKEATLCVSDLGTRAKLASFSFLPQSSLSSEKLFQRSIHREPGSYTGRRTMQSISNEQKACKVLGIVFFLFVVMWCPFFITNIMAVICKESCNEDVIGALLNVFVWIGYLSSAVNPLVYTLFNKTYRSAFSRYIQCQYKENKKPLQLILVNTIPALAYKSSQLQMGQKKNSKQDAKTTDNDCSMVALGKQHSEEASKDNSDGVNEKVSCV
T6 sequence (P50406 whole entry, species assumed): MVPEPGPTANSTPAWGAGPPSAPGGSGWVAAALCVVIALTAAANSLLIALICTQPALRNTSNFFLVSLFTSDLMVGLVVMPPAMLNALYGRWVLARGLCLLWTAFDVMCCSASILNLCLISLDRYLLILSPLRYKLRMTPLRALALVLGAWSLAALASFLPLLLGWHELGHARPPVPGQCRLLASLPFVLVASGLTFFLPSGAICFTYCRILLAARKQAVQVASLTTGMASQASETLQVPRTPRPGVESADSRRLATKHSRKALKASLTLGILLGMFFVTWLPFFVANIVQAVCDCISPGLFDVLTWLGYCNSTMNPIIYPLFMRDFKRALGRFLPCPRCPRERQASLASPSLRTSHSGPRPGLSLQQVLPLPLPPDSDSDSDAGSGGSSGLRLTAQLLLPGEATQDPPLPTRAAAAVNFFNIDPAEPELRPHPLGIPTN
T1 sequence (P34969 1-432): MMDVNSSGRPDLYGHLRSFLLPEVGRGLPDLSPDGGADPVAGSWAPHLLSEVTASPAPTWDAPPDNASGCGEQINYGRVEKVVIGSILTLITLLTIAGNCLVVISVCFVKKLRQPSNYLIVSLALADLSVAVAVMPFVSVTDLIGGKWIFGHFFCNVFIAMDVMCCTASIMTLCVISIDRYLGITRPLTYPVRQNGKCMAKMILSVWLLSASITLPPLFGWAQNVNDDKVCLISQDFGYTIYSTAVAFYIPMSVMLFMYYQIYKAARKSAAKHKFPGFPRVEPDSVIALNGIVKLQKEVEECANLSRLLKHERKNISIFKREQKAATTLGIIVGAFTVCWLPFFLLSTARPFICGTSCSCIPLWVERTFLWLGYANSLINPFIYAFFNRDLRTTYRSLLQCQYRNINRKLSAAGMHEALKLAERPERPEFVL
T2 sequence (P34969 1-432): as above

Turning to `CN1CCN(c2nc(-c3ccoc3)cc(C(F)(F)F)n2)CC1` (as salt: hydrochloride) [Compound 16, 4-(3-Furyl)-2-(4-methylpiperazin-1-yl)-6-(trifluoromethyl)pyrimidine], the melting point was more than 300 °C.
On to `c1cc(-c2ccoc2)nc(N2CC[N+]3(CCOCC3)CC2)n1` (as salt: iodide) [Compound 47, 4-[4-(3-Furyl)pyrimidin-2-yl]piperazine-1-spiro-1-morpholinium iodide], for which the melting point is > 200 °C (dec.).
On to `CCc1cc(-c2ccoc2)nc(N2CCN(C)CC2)n1` [Compound 12, 4-Ethyl-6-(3-furyl)-2-(4-methylpiperazin-1-yl)pyrimidine], for which the Ki was 7.1 ± 1.4 nM in data set [1]; 466 ± 39 nM in data set [3]; 1500 ± 164 nM in data set [4]; 10 nM and 12 nM in data set [5]; 121 ± 14 nM in data set [6]. The Kb in data set [2] came out at 12 nM. In data set [2], the “effect on 5-CT-induced cAMP accumulation” value is “dose-dependently decrease”.
Consider `CCCCc1cc(-c2ccoc2)nc(N2CCN(C)CC2)n1` [Compound 13, 4-(n-Butyl)-6-(3-furyl)-2-(4-methylpiperazin-1-yl)pyrimidine], for which the Ki is 1.6 ± 0.2 nM in data set [1]; 37 ± 4 nM in data set [3]; 637 ± 53 nM in data set [4]; 12 nM and 10 nM in data set [5]; 12 ± 2 nM in data set [6]. In addition, in data set [2], the Kb was determined as 60 nM. For the same molecule, the “effect on 5-CT-induced cAMP accumulation” value in data set [2] is listed as “dose-dependently decrease”. Besides, the “fold more active than 12 at D2 receptors” value in data set [3] (13 versus 12) turned out to be 13 fold. Besides, the “fold more active than 12 at 5-HT6” value in data set [6] (13 versus 12) is 10 fold.
For `c1cc(-c2ccoc2)nc(N2CCOCC2)n1` [Compound 44], the melting point was in the range of 58 to 59 °C. For the same molecule, in data set [1], the “Ki ± S.D. 5-HT7 binding affinity” value is recorded as “no affinity” and the Ki is more than 10000 nM.
Regarding `CC1CCN(CC[C@H]2CCCN2S(=O)(=O)c2cccc(O)c2)CC1` [SB-269970, (2R)-1-((3-hydroxyphenyl)sulfonyl)-2-(2-(4-methyl-1-piperidinyl)ethyl)pyrrolidine, reference compound], the “effect on 5-CT-induced cAMP accumulation” value in data set [2] was “dose-dependently decrease”.

By melting point is commonly meant the temperature, or range, at which the solid turns liquid. The Ki is the dissociation constant of the complex between target and ligand, obtained from inhibition or displacement. Broadly, the Kb is the affinity of an antagonist, worked out from how it opposes an agonist.

(Values after paper PMC6272903, “Synthesis and Structure-Activity Relationship Analysis of 5-HT7 Receptor Antagonists: Piperazin-1-yl Substituted Unfused Heterobiaryls” (Molecules, 2016).)
